Legend:
[1] = biological target: Glutamate receptor ionotropic, AMPA (Rattus norvegicus, UniProt P19490+P19491+P19492+P19493); assay: Inhibitory activity against Ionotropic glutamate receptor AMPA using [3H]AMPA as radioligand; format: protein-complex assay
Glutamate NMDA receptor = assay: Inhibitory activity against N-methyl-D-aspartate glutamate receptor using [3H]CPP as radioligand; format: protein-complex assay
Rattus norvegicus = species on record: Rattus norvegicus; assay: Effective dose against rat cortical slice cells using Electrophysiological experiment.; format: functional; settings: read-out: ED50 (the source's name)
[2] = biological target: Glutamate receptor ionotropic, kainate; assay: Inhibitory activity against Ionotropic glutamate receptor kainate using [3H]-kainic acid as radioligand; format: protein-complex assay

IC50 [1] [µM]	IC50 (Glutamate NMDA receptor) [µM]	EC50 (Rattus norvegicus) [µM]	IC50 [2] [µM]	Structure (SMILES)
> 100	35	15	> 100	CN[C@H](CC(=O)O)C(=O)O [N-METHYL-D-ASPARTIC ACID (NMDA)]
> 100		12	> 100	Cc1o[nH]c(=O)c1C(N)C(=O)O (stereo not given)
72	3.7	7.3	> 100	Cc1onc(O)c1[C@@H](N)C(=O)O
> 100	61	75	> 100	Cc1onc(O)c1[C@H](N)C(=O)O

Structure (SMILES)	IC50 [1] [µM]	IC50 (Glutamate NMDA receptor) [µM]	EC50 (Rattus norvegicus) [µM]	IC50 [2] [µM]
NC(C(=O)O)c1cc(=O)[nH]o1 (stereo not given)	76	> 100	3.8	> 100
Cc1onc(O)c1C[C@H](N)C(=O)O [(S)-AMPA]			580	

Reference: ChEMBL document CHEMBL1129284, “N-methyl-D-aspartic acid receptor agonists: resolution, absolute stereochemistry, and pharmacology of the enantiomers of 2-amino-2-(3-hydroxy-5-methyl-4-isoxazolyl)acetic acid” (J Med Chem, 1996)
